Here are results for one compound from US7687470B2, “Avermectin and avermectin monosaccharide substituted in the 4″- and 4″ position respectively” (Syngenta Crop Protection, Inc., priority 2005, dated 2010).

The subject of the assay is Diabrotica balteata. Kind of assay: Activity against Diabrotica balteata (sprayed maize seedlings). In kind it is in vivo. To be noted: 12.5 ppm, spray on maize seedlings, second-stage larvae, after 6 days; b227: good activity corresponding to a mortality of at least 50 to 60%. On the procedure: Maize seedlings are sprayed with an aqueous emulsion spray liquor which comprises 12.5 ppm of active compound and, after the spray coating has dried on, populated with 10 larvae of the second stage of Diabrotica balteata and then introduced into a plastic container. After 6 days, the reduction in the population in percent (% activity) is determined by comparing the dead larvae between the treated and the untreated plants.

On to `CCC(C)C1OC2(C=CC1C)CC1CC(CC=C(C)C(OC3CC(OC)C(OC4CC(OC)C(C)(NC=O)C(C)O4)C(C)O3)C(C)C=CC=C3COC4C(O)C(C)=CC(C(=O)O1)C34O)O2` (stereo not shown) [Table A8], for which the “activity in this test (in words)” value is given as “good activity”.
